From US20150296786A1, “SYNERGISTIC COMBINATION OF A ZOXAMIDE COMPOUND AND ONE OF DCOIT OR OIT FOR DRY FILM PROTECTION” (ROHM AND HAAS COMPANY, priority 2012, published 2015)

Tests used:
Chlorella sp. ATCC 7516 = test: Algal efficacy testing of dry paint films (modified ASTM 5589, 6-well plates); assay type: cell-based; details: 504 h, 3 weeks, visible algal growth vs blank, pass level ≧75%; for inhibition at 1000 ppm: total conc 1000 ppm in paint
Method: (§1) Sample preparation for antimicrobial testing was performed as follows:
(§2) Slurries containing 33% antimicrobial active ingredient (Zoxamide) were post added to a white, acrylic/silicone based outdoor paint free of biocides to give a total active ingredient concentration of 10000 and 1000 ppm respectively. KATHON™ 893T (100% OIT) and ROCIMA™ 200 (20% DCOIT) were post added to a white, acrylic/silicone based outdoor paint free of biocides to give a total active ingredient concentration of 10000 and 1000 ppm respectively. These paints were then diluted with an antimicrobial free acrylic/silicone based paint and mixed to prepare targeted concentrations of antimicrobial compounds for the testing. The total biocides concentrations tested were 125, 250, 500, 1000, 2000 and 5000 ppm. After biocides addition or dilution, the paints were mixed 90 seconds with the horse power shaker (AXEL 75M3372/Agitateur SO-10MI) until uniformity was achieved. Paints containing different antimicrobial compounds at the same levels were mixed together in order to obtain the desired ratio of antimicrobial compounds. After one day, the paints were applied to Schleicher & Schuell filter paper at 280μm wet film thickness and dried for 3 days at room temperature avoiding direct exposure to sunlight. Square discs (1.6 cm×1.6 cm) were cut out from each panel and were used as the substrate for algal efficacy tests. This sample size allowed for an agar border when the sample disc was placed into the well of the test plate.
(§3) Algal efficacy was tested according to modified ASTM 5589 which is a standard accelerated test method for determining resistance of various coatings (including paints) to algal defacement. To accommodate for high-throughput screening, this method was scaled down from petri dishes to 6-well plates. Bold Modified Basal Freshwater Nutrient Solution was used as growth medium. A single coated filter paper coupon was placed with a pair of sterile forceps at the center of the agar plug (on top) with the painted surface facing upwards. Algal inoculums were prepared by mixing equal concentrations (1×10^6 cfu/ml) and equal volumes of exponentially growing algae cultures.
(§4) Each well that contains a tested coupon was inoculated with 1750 μl of algal suspensions (1×10^6 cfu/ml) making sure that the whole surface (paint film as well as the agar surrounding it) was evenly covered. The plates were incubated at room temp (21° C.-25° C.) with cyclic exposure to light and dark phases, for a period of three weeks.
(§5) At the end of the three week incubation period, the samples were scored for percent inhibition regarding visible algal growth compared to the blank sample (0% inhibition).
(§6) The Synergy Index calculation was performed as follows.
(§7) The SI is calculated based on F. C. Kull et.
(§8) SI value of <1 in the formula indicates a synergism of the blended biocides exists.
(§9) The minimal targeted inhibition was set at 75%, meaning a coupon with at least 75% algal growth inhibition was considered as a pass.

[1] = system: Stichococcus bacillaris SAG 379-1a / CCAP 379/1a; test: as above; assay type: cell-based; details: 504 h, 3 weeks, visible algal growth vs blank, pass level ≧75%
Method: as §1, §2, §3, §4, §5, §6, §7, §8, §9

Compound	inhibition at 1000 ppm (Chlorella sp. ATCC 7516) [%]	inhibition at 1000 ppm ([1]; total conc 1000 ppm in paint) [%]	inhibition at 5000 ppm (Chlorella sp. ATCC 7516; total conc 5000 ppm in paint) [%]	inhibition at 5000 ppm ([1]; total conc 5000 ppm in paint) [%]
CCCCCCCCn1sc(Cl)c(Cl)c1=O [DCOIT, 4,5-dichloro-2-n-octyl-4-isothiazolin-3-one]	85	85	–	–
CCCCCCCCn1sccc1=O [OIT, 2-n-octyl-4-isothiazolin-3-one]	95	–	–	–
CCC(C)(NC(=O)c1cc(Cl)c(C)c(Cl)c1)C(=O)CCl (centres unmarked) [Zoxamide]	–	–	60	45
